Results published in patent US11707462B2, “Checkpoint kinase 1 (CHK1) inhibitors and uses thereof” (Boundless Bio, Inc., priority 2021, dated 2023).

Experiments:
[1] = target: T1, Full-length human Chk1 protein (Homo sapiens, UniProt O14757); assay: Kinase HTRF biochemical assay (HTRF KinEASE), Chk1 enzyme activity; settings: full-length human Chk1, ATP 1 mM, 60 minutes at room temperature
T1 construct: purchased Carna Biosciences, Inc. 02-117
T1 sequence (O14757 1-476): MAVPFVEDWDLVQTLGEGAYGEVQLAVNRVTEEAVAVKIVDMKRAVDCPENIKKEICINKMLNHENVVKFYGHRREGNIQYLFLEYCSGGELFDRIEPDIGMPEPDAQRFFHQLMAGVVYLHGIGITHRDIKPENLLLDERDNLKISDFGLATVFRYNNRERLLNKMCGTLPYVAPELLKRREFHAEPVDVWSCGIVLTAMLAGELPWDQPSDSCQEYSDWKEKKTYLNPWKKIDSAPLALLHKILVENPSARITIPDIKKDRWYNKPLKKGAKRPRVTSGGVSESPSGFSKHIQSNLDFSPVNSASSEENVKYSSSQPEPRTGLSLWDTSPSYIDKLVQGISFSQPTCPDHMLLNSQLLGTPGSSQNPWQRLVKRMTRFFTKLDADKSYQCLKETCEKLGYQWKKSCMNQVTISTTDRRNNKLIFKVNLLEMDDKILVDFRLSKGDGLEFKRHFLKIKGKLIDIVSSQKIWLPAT
Procedure, shortened: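 Full-length human Chk1 (0.012 ng/μL) in buffer with 5 mM MgCl2 and 1 mM DTT, preincubated with compound 10 min at room temperature; reaction with 120 nM biotinylated STK substrate 1 and 1 mM ATP for 60 min at room temperature. HTRF detection via cryptate antibody/streptavidin-XL665; IC50 from 10-point duplicate curves.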

p-CHK1 (Ser345) = assay: AlphaLISA SureFire Ultra p-CHK1 (Ser345) cellular assay in HT29 cells; type: cell-based; settings: Homo sapiens, HT-29, 16 h at 37° C.
Procedure, shortened: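 HT29 cells treated with compounds over a 10-point, 3-fold dilution series for 16 h at 37° C., then lysed; p-CHK1 (Ser345) in lysates measured by AlphaLISA SureFire Ultra (acceptor and donor steps 1 h each at room temperature). IC50 from dose-response curve fits.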

Row | IC50 [1] [nM] | IC50 (p-CHK1 (Ser345)) [nM] | SMILES
1 | 10 to 100 | 100 to 500 | CN[C@@H]1CC[C@@H](Oc2ccc(Cl)c(F)c2-c2cc(Nc3cnc(C#N)cn3)n[nH]2)C1 [Example 3-22, 5-((5-(3-chloro-2-fluoro-6-(((1R,3R)-3-(methylamino)cyclopentyl)oxy)phenyl)-1H-pyrazol-3-yl)amino)pyrazine-2-carbonitrile]
2 | 10 to 100 | 500 to 1000 | N#Cc1cnc(Nc2cc(-c3c(F)cc(Cl)cc3O[C@@H]3CC[C@H](N)C3)[nH]n2)cn1 [Example 3-24, 5-((5-(2-(((1R,3S)-3-aminocyclopentyl)oxy)-4-chloro-6-fluorophenyl)-1H-pyrazol-3-yl)amino)pyrazine-2-carbonitrile]
3 | 10 to 100 | 100 to 500 | CN[C@@H]1CC[C@@H](Oc2cc(Cl)cc(F)c2-c2cc(Nc3cnc(C#N)cn3)n[nH]2)C1 [Example 3-25, 5-((5-(4-chloro-2-fluoro-6-(((1R,3R)-3-(methylamino)cyclopentyl)oxy)phenyl)-1H-pyrazol-3-yl)amino)pyrazine-2-carbonitrile]
4 | ≤ 10 | ≤ 50 | Cc1ccc(O[C@@H]2CC[C@@H](N)C2)c(-c2cc(Nc3cnc(C#N)cn3)n[nH]2)c1F [Example 3-26, 5-((5-(6-(((1R,3R)-3-aminocyclopentyl)oxy)-2-fluoro-3-methylphenyl)-1H-pyrazol-3-yl)amino)pyrazine-2-carbonitrile]
5 | ≤ 10 | 50 to 100 | Cc1cc(-c2cc(Nc3cnc(C#N)cn3)n[nH]2)c(O[C@@H]2CC[C@@H](N)C2)cc1F [Example 3-27, 5-((5-(2-(((1R,3R)-3-aminocyclopentyl)oxy)-4-fluoro-5-methylphenyl)-1H-pyrazol-3-yl)amino)pyrazine-2-carbonitrile]
6 | ≤ 10 | 100 to 500 | N#Cc1cnc(Nc2cc(-c3c(O[C@@H]4CC[C@@H](N)C4)ccc(F)c3F)[nH]n2)cn1 [Example 3-28, 5-((5-(6-(((1R,3R)-3-aminocyclopentyl)oxy)-2,3-difluorophenyl)-1H-pyrazol-3-yl)amino)pyrazine-2-carbonitrile]
7 | ≤ 10 | 100 to 500 | N#Cc1cnc(Nc2cc(-c3c(O[C@@H]4CC[C@@H](N)C4)ccc(Cl)c3F)[nH]n2)cn1 [Example 3-29, 5-((5-(6-(((1R,3R)-3-aminocyclopentyl)oxy)-3-chloro-2-fluorophenyl)-1H-pyrazol-3-yl)amino)pyrazine-2-carbonitrile]
8 | ≤ 10 | 100 to 500 | N#Cc1cnc(Nc2cc(-c3c(F)cc(Cl)cc3O[C@@H]3CC[C@@H](N)C3)[nH]n2)cn1 [Example 3-30, 5-((5-(2-(((1R,3R)-3-aminocyclopentyl)oxy)-4-chloro-6-fluoropheny)-1H-pyrazol-3-yl)amino)pyrazine-2-carbonitrile]
9 | ≤ 10 | ≤ 50 | N#Cc1cnc(Nc2cc(-c3c(F)cccc3O[C@@H]3CCCC[C@H](N)C3)[nH]n2)cn1 [Example 3-35, 5-((5-(2-(((1R,3S)-3-aminocycloheptyl)oxy)-6-fluorophenyl)-1H-pyrazol-3-yl)amino)pyrazine-2-carbonitrile]
10 | ≤ 10 | 50 to 100 | N#Cc1cnc(Nc2cc(-c3c(F)cccc3O[C@H]3CCCC[C@H](N)C3)[nH]n2)cn1 [Example 3-38, 5-((5-(2-(((1S,3S)-3-aminocycloheptyl)oxy)-6-fluorophenyl)-1H-pyrazol-3-yl)amino)pyrazine-2-carbonitrile]
11 | ≤ 10 | ≤ 50 | N#Cc1cnc(Nc2cc(-c3c(F)cccc3O[C@@H]3CCC[C@H]3N)[nH]n2)cn1 [Example 3-40, 5-((5-(2-(((1R,2R)-2-aminocyclopentyl)oxy)-6-fluorophenyl)-1H-pyrazol-3-yl)amino)pyrazine-2-carbonitrile]
12 | 10 to 100 | 100 to 500 | N#Cc1cnc(Nc2cc(-c3ncccc3O[C@H]3CC[C@@H](N)C3)[nH]n2)cn1 [Example 3-42, 5-((5-(3-(((1S,3R)-3-aminocyclopentyl)oxy)pyridin-2-yl)-1H-pyrazol-3-yl)amino)pyrazine-2-carbonitrile]
13 | 10 to 100 | 500 to 1000 | Cc1ccc(O[C@H]2CC[C@H](N)C2)c(-c2cc(Nc3cnc(C#N)cn3)n[nH]2)n1 [Example 3-44, 5-((5-(3-(((1S,3S)-3-aminocyclopentyl)oxy)-6-methylpyridin-2-yl)-1H-pyrazol-3-yl)amino)pyrazine-2-carbonitrile]
14 | ≤ 10 | ≤ 50 | CN[C@@H]1CC[C@@H](Oc2ccc(C)nc2-c2cc(Nc3cnc(C#N)cn3)n[nH]2)C1 [Example 3-45, 5-((5-(6-methyl-3-(((1R,3R)-3-(methylamino)cyclopentyl)oxy)pyridin-2-yl)-1H-pyrazol-3-yl)amino)pyrazine-2-carbonitrile]
15 | ≤ 10 | 50 to 100 | CC(C)c1ccc(O[C@@H]2CC[C@H](N)C2)c(-c2cc(Nc3cnc(C#N)cn3)n[nH]2)n1 [Example 3-46, 5-((5-(3-(((1R,3S)-3-aminocyclopentyl)oxy)-6-isopropylpyridin-2-yl)-1H-pyrazol-3-yl)amino)pyrazine-2-carbonitrile]
16 | ≤ 10 | 50 to 100 | CCCc1ccc(O[C@@H]2CC[C@H](N)C2)c(-c2cc(Nc3cnc(C#N)cn3)n[nH]2)n1 [Example 3-47, 5-((5-(3-(((1R,3S)-3-aminocyclopentyl)oxy)-6-propylpyridin-2-yl)-1H-pyrazol-3-yl)amino)pyrazine-2-carbonitrile]
17 | ≤ 10 | ≤ 50 | Cc1cc(O[C@@H]2CC[C@H](N)C2)c(-c2cc(Nc3cnc(C#N)cn3)n[nH]2)nc1C [Example 3-48, 5-((5-(3-(((1R,3S)-3-aminocyclopentyl)oxy)-5,6-dimethylpyridin-2-yl)-1H-pyrazol-3-yl)amino)pyrazine-2-carbonitrile]
18 | 10 to 100 | 100 to 500 | N#Cc1cnc(Nc2cc(-c3nc(C(F)(F)F)ccc3O[C@@H]3CC[C@H](N)C3)[nH]n2)cn1 [Example 3-49, 5-((5-(3-(((1R,3S)-3-aminocyclopentyl)oxy)-6-(trifluoromethyl)pyridin-2-yl)-1H-pyrazol-3-yl)amino)pyrazine-2-carbonitrile]
19 | 10 to 100 | 50 to 100 | Cc1nc(-c2cc(Nc3cnc(C#N)cn3)n[nH]2)c(O[C@@H]2CC[C@H](N)C2)cc1F [Example 3-50, 5-((5-(3-(((1R,3S)-3-aminocyclopentyl)oxy)-5-fluoro-6-methylpyridin-2-yl)-1H-pyrazol-3-yl)amino)pyrazine-2-carbonitrile]
20 | 100 to 500 | 500 to 1000 | COc1c(C)ccc(O[C@@H]2CC[C@H](N)C2)c1-c1cc(Nc2cnc(C#N)cn2)n[nH]1 [Example 4-1, 5-((5-(6-(((1R,3S)-3-aminocyclopentyl)oxy)-2-methoxy-3-methylphenyl)-1H-pyrazol-3-yl)amino)pyrazine-2-carbonitrile]
21 | 10 to 100 | 500 to 1000 | COc1c(Cl)ccc(O[C@@H]2CC[C@H](N)C2)c1-c1cc(Nc2cnc(C#N)cn2)n[nH]1 [Example 4-2, 5-((5-(6-(((1R,3S)-3-aminocyclopentyl)oxy)-3-chloro-2-methoxyphenyl)-1H-pyrazol-3-yl)amino)pyrazine-2-carbonitrile]

Row | SMILES | IC50 [1] [nM] | IC50 (p-CHK1 (Ser345)) [nM]
22 | N#Cc1cnc(Nc2cc(-c3c(F)cccc3O[C@@H]3CC[C@H]3N)[nH]n2)cn1 [Example 3-33, 5-((5-(2-((1R,2R)-2-aminocyclobutoxy)-6-fluorophenyl)-1H-pyrazol-3-yl)amino)pyrazine-2-carbonitrile] | 10 to 100 | 50 to 100
